Read-outs that look alike come from different tables or passages of the source.
Tests used:
EGFR L858R/C797S = EGFR L858R/C797S (Homo sapiens, UniProt P00533, C797S/L858R); test: Biochemical EGFR kinase inhibition assay (Lance Ultra TR-FRET), double mutant L858R/C797S
Procedure, shortened: (§1)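 Kinase activity is measured by TR-FRET phosphopeptide detection. Compounds span 0.003 μM to 10 μM; the 1 h reaction at room temperature is quenched with EDTA, then labelled antibody (2 nM) is incubated 60 min before reading.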

EGFR Del19/C797S = EGFR Del19/C797S (Homo sapiens, UniProt P00533, C797S/DEL746-750); test: Biochemical EGFR kinase inhibition assay (Lance Ultra TR-FRET), double mutant del19/C797S
Procedure, shortened: as §1

EGFR wildtype (WT) = EGFR wildtype (WT) (Homo sapiens, UniProt P00533); test: Biochemical EGFR kinase inhibition assay (Lance Ultra TR-FRET), wildtype
Procedure, shortened: as §1

EGFR Del19/T790M/C797S = EGFR Del19/T790M/C797S (Homo sapiens, UniProt P00533, C797S/DEL746-750/T790M); test: Biochemical EGFR kinase inhibition assay (Lance Ultra TR-FRET), triple mutant del19/T790M/C797S
Procedure, shortened: as §1

EGFR L858R/T790M/C797S = EGFR L858R/T790M/C797S (Homo sapiens, UniProt P00533, C797S/L858R/T790M); test: Biochemical EGFR kinase inhibition assay (Lance Ultra TR-FRET), triple mutant L858R/T790M/C797S
Procedure, shortened: as §1

[1] = Km ATP, read-out: IC50 L858R/C797S (nM) Km ATP
[2] = IC50 Del19/C797S (nM), 100 μM ATP
[3] = Km ATP, read-out: IC50 Del19/C797S (nM) Km ATP
[4] = Km ATP, read-out: IC50 WT (nM) Km ATP
[5] = IC50 Del19/T790M/C797S (nM), 100 μM ATP
[6] = Km ATP, read-out: IC50 Del19/T790M/C797S (nM) Km ATP
[7] = IC50 L858R/T790M/C797S (nM), 100 μM ATP
[8] = Km ATP, read-out: IC50 L858R/T790M/C797S (nM) Km ATP
[9] = IC50 L858R/C797S (nM), 100 μM ATP

Chain of EGFR L858R/T790M/C797S (P00533 25-1210 T790M/C797S/L858R): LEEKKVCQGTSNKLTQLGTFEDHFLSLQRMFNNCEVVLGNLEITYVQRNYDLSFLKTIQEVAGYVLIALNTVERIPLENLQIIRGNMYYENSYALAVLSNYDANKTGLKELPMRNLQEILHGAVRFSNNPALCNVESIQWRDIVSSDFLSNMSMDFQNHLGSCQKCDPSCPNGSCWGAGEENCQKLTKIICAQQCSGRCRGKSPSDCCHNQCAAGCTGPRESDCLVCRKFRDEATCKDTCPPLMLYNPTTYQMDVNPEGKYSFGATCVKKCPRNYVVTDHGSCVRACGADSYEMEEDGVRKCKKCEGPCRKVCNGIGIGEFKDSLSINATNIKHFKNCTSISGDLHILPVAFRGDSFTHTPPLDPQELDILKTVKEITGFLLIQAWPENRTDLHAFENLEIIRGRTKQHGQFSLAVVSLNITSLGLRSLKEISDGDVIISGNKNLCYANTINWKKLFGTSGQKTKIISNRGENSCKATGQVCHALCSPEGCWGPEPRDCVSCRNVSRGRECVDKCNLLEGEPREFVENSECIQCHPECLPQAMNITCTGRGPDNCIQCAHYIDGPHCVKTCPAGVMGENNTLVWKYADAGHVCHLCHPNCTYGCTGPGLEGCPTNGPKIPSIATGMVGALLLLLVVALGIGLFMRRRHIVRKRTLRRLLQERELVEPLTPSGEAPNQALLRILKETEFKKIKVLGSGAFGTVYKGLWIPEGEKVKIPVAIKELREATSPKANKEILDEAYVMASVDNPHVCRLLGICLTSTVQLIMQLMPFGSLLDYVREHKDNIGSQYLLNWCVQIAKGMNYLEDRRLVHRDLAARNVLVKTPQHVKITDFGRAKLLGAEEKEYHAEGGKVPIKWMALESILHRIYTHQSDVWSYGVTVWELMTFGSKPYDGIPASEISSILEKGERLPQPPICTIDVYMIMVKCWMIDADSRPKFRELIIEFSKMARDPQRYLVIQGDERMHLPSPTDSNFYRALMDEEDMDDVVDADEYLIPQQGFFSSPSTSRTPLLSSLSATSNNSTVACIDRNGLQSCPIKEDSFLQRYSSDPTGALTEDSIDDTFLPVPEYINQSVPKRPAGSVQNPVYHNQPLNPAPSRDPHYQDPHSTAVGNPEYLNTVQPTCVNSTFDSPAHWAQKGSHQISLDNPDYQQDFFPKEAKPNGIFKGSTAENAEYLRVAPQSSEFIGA
Chain of EGFR Del19/C797S (P00533 with tags, fused parts or gaps DEL746-750/C797S): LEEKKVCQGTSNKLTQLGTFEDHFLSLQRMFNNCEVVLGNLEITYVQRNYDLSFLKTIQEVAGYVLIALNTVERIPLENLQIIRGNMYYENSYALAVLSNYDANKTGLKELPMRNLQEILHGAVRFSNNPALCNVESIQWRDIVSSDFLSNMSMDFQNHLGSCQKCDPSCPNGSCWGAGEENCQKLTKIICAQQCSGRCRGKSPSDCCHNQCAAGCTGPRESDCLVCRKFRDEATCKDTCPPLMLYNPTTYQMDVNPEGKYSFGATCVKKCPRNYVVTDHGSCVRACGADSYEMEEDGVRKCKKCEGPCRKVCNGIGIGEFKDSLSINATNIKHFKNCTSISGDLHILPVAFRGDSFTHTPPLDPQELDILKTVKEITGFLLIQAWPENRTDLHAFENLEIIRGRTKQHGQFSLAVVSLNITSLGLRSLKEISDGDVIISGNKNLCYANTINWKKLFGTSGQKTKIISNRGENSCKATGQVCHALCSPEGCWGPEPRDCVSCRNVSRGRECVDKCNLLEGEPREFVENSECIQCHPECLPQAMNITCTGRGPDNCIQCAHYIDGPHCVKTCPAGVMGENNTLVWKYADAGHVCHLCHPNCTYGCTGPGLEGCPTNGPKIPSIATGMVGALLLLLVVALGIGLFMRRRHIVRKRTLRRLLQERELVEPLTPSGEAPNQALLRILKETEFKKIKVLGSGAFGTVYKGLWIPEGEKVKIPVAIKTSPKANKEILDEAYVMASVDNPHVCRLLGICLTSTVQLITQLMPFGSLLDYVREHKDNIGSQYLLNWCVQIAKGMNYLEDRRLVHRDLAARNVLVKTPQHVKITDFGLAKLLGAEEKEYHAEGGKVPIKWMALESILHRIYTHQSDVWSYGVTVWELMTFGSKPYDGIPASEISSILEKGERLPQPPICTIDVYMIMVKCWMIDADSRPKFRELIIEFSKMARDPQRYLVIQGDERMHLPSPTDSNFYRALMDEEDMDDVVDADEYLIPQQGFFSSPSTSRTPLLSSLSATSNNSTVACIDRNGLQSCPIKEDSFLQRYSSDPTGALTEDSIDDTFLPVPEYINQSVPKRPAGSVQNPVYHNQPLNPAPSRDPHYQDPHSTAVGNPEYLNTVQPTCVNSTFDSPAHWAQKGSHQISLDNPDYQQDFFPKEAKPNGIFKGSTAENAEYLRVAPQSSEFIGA
Chain of EGFR Del19/T790M/C797S (P00533 with tags, fused parts or gaps DEL746-750/T790M/C797S): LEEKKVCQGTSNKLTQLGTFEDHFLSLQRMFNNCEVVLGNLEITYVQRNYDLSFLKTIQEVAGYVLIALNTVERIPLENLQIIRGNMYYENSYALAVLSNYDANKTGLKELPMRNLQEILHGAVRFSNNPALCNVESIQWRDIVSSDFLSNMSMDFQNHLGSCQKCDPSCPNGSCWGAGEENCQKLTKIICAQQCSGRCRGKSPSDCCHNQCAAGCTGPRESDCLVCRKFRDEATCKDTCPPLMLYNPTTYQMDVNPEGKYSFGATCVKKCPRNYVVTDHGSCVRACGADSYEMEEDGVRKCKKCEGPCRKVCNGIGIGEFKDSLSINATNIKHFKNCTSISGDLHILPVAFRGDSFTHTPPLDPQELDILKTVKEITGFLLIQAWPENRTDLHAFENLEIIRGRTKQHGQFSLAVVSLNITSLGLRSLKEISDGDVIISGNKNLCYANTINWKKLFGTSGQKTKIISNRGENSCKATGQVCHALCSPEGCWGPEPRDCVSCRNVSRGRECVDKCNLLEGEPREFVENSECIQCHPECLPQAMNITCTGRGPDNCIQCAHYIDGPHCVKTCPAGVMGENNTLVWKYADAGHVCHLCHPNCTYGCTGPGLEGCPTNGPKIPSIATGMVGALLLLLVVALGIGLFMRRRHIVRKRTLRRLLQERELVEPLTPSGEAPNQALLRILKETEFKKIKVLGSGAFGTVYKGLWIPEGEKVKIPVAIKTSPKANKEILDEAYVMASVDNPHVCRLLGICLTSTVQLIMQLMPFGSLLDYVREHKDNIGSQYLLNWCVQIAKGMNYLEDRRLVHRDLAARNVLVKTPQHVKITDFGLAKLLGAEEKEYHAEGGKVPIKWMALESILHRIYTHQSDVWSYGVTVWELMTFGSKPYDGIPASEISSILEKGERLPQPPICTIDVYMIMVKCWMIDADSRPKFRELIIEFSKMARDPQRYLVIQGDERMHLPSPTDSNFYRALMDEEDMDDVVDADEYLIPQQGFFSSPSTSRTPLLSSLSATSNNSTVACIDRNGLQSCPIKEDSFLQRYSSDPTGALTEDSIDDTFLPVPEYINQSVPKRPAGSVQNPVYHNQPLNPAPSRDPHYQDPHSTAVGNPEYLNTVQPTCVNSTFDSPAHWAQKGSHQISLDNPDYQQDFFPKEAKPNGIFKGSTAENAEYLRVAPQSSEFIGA
Chain of EGFR L858R/C797S (P00533 25-1210 C797S/L858R): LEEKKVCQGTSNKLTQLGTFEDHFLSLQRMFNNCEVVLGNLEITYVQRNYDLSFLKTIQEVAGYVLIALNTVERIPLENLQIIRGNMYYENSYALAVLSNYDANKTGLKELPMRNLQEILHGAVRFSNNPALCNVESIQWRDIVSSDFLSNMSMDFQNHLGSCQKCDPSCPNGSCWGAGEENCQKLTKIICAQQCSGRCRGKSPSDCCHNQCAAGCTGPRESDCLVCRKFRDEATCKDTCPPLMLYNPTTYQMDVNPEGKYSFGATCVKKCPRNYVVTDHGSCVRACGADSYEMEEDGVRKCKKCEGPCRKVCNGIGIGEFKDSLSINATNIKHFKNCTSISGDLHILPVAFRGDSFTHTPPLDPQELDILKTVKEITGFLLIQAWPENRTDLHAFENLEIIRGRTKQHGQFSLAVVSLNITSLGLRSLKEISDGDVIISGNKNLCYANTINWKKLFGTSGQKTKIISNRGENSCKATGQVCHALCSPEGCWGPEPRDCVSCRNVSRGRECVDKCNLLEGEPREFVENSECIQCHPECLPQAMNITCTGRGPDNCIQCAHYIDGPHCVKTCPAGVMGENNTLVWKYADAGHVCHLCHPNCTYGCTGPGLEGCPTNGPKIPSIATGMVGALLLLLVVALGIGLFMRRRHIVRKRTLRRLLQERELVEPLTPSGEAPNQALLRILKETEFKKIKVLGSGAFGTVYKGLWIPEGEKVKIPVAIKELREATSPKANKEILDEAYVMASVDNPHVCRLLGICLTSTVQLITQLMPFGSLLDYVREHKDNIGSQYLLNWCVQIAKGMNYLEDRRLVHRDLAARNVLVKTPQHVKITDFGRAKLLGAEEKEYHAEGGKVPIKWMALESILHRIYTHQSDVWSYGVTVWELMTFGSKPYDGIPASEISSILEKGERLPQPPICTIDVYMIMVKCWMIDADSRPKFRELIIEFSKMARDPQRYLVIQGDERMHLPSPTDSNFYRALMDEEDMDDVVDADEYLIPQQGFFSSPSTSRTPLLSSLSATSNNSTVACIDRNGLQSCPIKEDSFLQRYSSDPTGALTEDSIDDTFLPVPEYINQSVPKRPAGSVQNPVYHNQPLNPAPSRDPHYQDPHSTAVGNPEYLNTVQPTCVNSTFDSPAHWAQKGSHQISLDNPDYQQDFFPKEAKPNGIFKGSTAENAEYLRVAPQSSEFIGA

| IC50 (EGFR L858R/C797S; [1]) | IC50 (EGFR Del19/C797S; [2]) | IC50 (EGFR Del19/C797S; [3]) | IC50 (EGFR wildtype (WT); IC50 WT (nM), 100 μM ATP) | IC50 (EGFR wildtype (WT); [4]) | IC50 (EGFR Del19/T790M/C797S; [5]) | IC50 (EGFR Del19/T790M/C797S; [6]) | IC50 (EGFR L858R/T790M/C797S; [7]) | IC50 (EGFR L858R/T790M/C797S; [8]) | IC50 (EGFR L858R/C797S; [9]) | Structure (SMILES) |
| --- | --- | --- | --- | --- | --- | --- | --- | --- | --- | --- |
| 1.7 nM | 2.6 nM | 1.1 nM | > 10000 nM | 19.2 nM | 1.4 nM | 0.6 nM | 0.7 nM | 0.1 nM |  | CC(C)n1cc(C#Cc2cnc(Nc3ccnc(-c4cnn(S(=O)(=O)C5CC5)c4)n3)cc2OC[C@H]2CC[C@H](CN(C)C)CC2)cn1 [Example 59, 2-(1-(Cyclopropylsulfonyl)-1H-pyrazol-4-yl)-N-(4-(((1r,4r)-4-((dimethylamino)methyl)cyclohexyl)methoxy)-5-((1-isopropyl-1H-pyrazol-4-yl)ethynyl)pyridin-2-yl)pyrimidin-4-amine] |
| 2.6 nM |  | 0.4 nM |  | 8.8 nM |  | 0.5 nM |  | 0.1 nM |  | CN(C)C[C@H]1CC[C@H](COc2cc(Nc3ccnc(-c4cnn(S(=O)(=O)C5CC5)c4)n3)ncc2C#Cc2cnn(C3CC3)c2)CC1 [Example 60, N-(5-((1-Cyclopropyl-1H-pyrazol-4-yl)ethynyl)-4-(((1r,4r)-4-((dimethylamino)methyl)cyclohexyl)methoxy)pyridin-2-yl)-2-(1-(cyclopropylsulfonyl)-1H-pyrazol-4-yl)pyrimidin-4-amine] |
| 3.1 nM |  | 0.5 nM |  | 4.2 nM |  | 0.5 nM |  | 0.1 nM |  | CN(C)C[C@H]1CC[C@H](COc2cc(Nc3ccnc(-c4cnn(S(=O)(=O)C5CC5)c4)n3)ncc2C#Cc2cnn(CCF)c2)CC1 [Example 61, 2-(1-(Cyclopropylsulfonyl)-1H-pyrazol-4-yl)-N-(4-(((1r,4r)-4-((dimethylamino)methyl)cyclohexyl)methoxy)-5-((1-(2-fluoroethyl)-1H-pyrazol-4-yl)ethynyl)pyridin-2-yl)pyrimidin-4-amine] |
| 4.9 nM |  | 0.4 nM |  | 7.9 nM |  | 0.2 nM |  | 0.1 nM |  | CN(C)C[C@H]1CC[C@H](COc2cc(Nc3ccnc(-c4cnn(S(=O)(=O)C5CC5)c4)n3)ncc2C#Cc2cccnc2)CC1 [Example 62, 2-(1-(Cyclopropylsulfonyl)-1H-pyrazol-4-yl)-N-(4-(((1r,4r)-4-((dimethylamino)methyl)cyclohexyl)methoxy)-5-(pyridin-3-ylethynyl)pyridin-2-yl)pyrimidin-4-amine] |
|  | 23.1 nM |  | > 10000 nM |  | 1.2 nM |  | 2.4 nM |  | 83.4 nM | Cn1cc(C#Cc2cnc(Nc3ccnc(-c4cnn(S(=O)(=O)C5CC5)c4)n3)cc2N2CCC(NS(C)(=O)=O)CC2)cn1 [Example 63, N-(1-(2-((2-(1-(Cyclopropylsulfonyl)-1H-pyrazol-4-yl)pyrimidin-4-yl)amino)-5-((1-methyl-1H-pyrazol-4-yl)ethynyl)pyridin-4-yl)piperidin-4-yl)methanesulfonamide] |
|  | 88.3 nM |  | > 10000 nM |  | 1 nM |  | 2 nM |  | 306 nM | CC(C)NC1CCN(c2cc(Nc3ccnc(-c4cnn(S(=O)(=O)C5CC5)c4)n3)ncc2C#Cc2cnn(C)c2)CC1 [Example 64, 2-(1-(Cyclopropylsulfonyl)-1H-pyrazol-4-yl)-N-(4-(4-(isopropylamino)piperidin-1-yl)-5-((1-methyl-1H-pyrazol-4-yl)ethynyl)pyridin-2-yl)pyrimidin-4-amine] |
|  | 338 nM |  | > 10000 nM |  | 8.2 nM |  | 39.2 nM |  | 604 nM | Cn1cc(C#Cc2cnc(Nc3ccnc(-c4cnn(S(=O)(=O)C5CC5)c4)n3)cc2N2CCC(C(F)(F)F)CC2)cn1 [Example 65, 2-(1-(Cyclopropylsulfonyl)-1H-pyrazol-4-yl)-N-(5-((1-methyl-1H-pyrazol-4-yl)ethynyl)-4-(4-(trifluoromethyl)piperidin-1-yl)pyridin-2-yl)pyrimidin-4-amine] |
|  | 114 nM |  | > 10000 nM |  | 9 nM |  | 31.1 nM |  | 350 nM | Cn1cc(C#Cc2cnc(Nc3ccnc(-c4cnn(S(=O)(=O)C5CC5)c4)n3)cc2N2CCC(F)(C(F)(F)F)CC2)cn1 [Example 66, 2-(1-(Cyclopropylsulfonyl)-1H-pyrazol-4-yl)-N-(4-(4-fluoro-4-(trifluoromethyl)piperidin-1-yl)-5-((1-methyl-1H-pyrazol-4-yl)ethynyl)pyridin-2-yl)pyrimidin-4-amine] |
|  | 181 nM |  | > 10000 nM |  | 13.3 nM |  | 27.7 nM |  | 209 nM | Cn1cc(C#Cc2cnc(Nc3ccnc(-c4cnn(S(=O)(=O)C5CC5)c4)n3)cc2N2CCC(OC(F)(F)F)CC2)cn1 [Example 67, 2-(1-(Cyclopropylsulfonyl)-1H-pyrazol-4-yl)-N-(5-((1-methyl-1H-pyrazol-4-yl)ethynyl)-4-(4-(trifluoromethoxy)piperidin-1-yl)pyridin-2-yl)pyrimidin-4-amine] |
|  | 31 nM |  | > 10000 nM |  | 1.3 nM |  | 8.9 nM |  | 130 nM | Cn1cc(C#Cc2cnc(Nc3ccnc(-c4cnn(S(=O)(=O)C5CC5)c4)n3)cc2N2CCC(O)C(F)(F)C2)cn1 (stereo not shown) [Example 68, 1-(2-((2-(1-(Cyclopropylsulfonyl)-1H-pyrazol-4-yl)pyrimidin-4-yl)amino)-5-((1-methyl-1H-pyrazol-4-yl)ethynyl)pyridin-4-yl)-3,3-difluoropiperidin-4-ol] |
|  | 43.8 nM |  | > 10000 nM |  | 1.7 nM |  | 13.2 nM |  | 179 nM | Cn1cc(C#Cc2cnc(Nc3ccnc(-c4cnn(S(=O)(=O)C5CC5)c4)n3)cc2N2CCC(O)C(C)(C)C2)cn1 (stereo not shown) [Example 69, 1-(2-((2-(1-(Cyclopropylsulfonyl)-1H-pyrazol-4-yl)pyrimidin-4-yl)amino)-5-((1-methyl-1H-pyrazol-4-yl)ethynyl)pyridin-4-yl)-3,3-dimethylpiperidin-4-ol] |
|  | 24.7 nM |  | > 10000 nM |  | 1.6 nM |  | 10.4 nM |  | 172 nM | Cn1cc(C#Cc2cnc(Nc3ccnc(-c4cnn(S(=O)(=O)C5CC5)c4)n3)cc2N2CCCC(F)C2)cn1 (stereo not shown) [Example 70, 2-(1-(Cyclopropylsulfonyl)-1H-pyrazol-4-yl)-N-(4-(3-fluoropiperidin-1-yl)-5-((1-methyl-1H-pyrazol-4-yl)ethynyl)pyridin-2-yl)pyrimidin-4-amine] |
|  | 127 nM |  | > 10000 nM |  | 15.7 nM |  | 52.6 nM |  | 751 nM | Cn1cc(C#Cc2cnc(Nc3ccnc(-c4cnn(S(=O)(=O)C5CC5)c4)n3)cc2N2CCCC(C(F)(F)F)C2)cn1 (stereo not shown) [Example 71, 2-(1-(Cyclopropylsulfonyl)-1H-pyrazol-4-yl)-N-(5-((1-methyl-1H-pyrazol-4-yl)ethynyl)-4-(3-(trifluoromethyl)piperidin-1-yl)pyridin-2-yl)pyrimidin-4-amine] |
|  | 50.3 nM |  | > 10000 nM |  | 2.8 nM |  | 16.9 nM |  | 170 nM | Cn1cc(C#Cc2cnc(Nc3ccnc(-c4cnn(S(=O)(=O)C5CC5)c4)n3)cc2N2CCCC(CF)C2)cn1 (stereo not shown) [Example 72, 2-(1-(Cyclopropylsulfonyl)-1H-pyrazol-4-yl)-N-(4-(3-(fluoromethyl)piperidin-1-yl)-5-((1-methyl-1H-pyrazol-4-yl)ethynyl)pyridin-2-yl)pyrimidin-4-amine] |
|  | 2.8 nM |  | 7550 nM |  | 0.4 nM |  | 1.2 nM |  | 6.6 nM | Cn1cc(C#Cc2cnc(Nc3ccnc(-c4cnn(S(=O)(=O)C5CC5)c4)n3)cc2N2CCC(F)(CO)CC2)cn1 [Example 73, (1-(2-((2-(1-(Cyclopropylsulfonyl)-1H-pyrazol-4-yl)pyrimidin-4-yl)amino)-5-((1-methyl-1H-pyrazol-4-yl)ethynyl)pyridin-4-yl)-4-fluoropiperidin-4-yl)methanol] |
|  | 123 nM |  | > 10000 nM |  | 4.7 nM |  | 13.6 nM |  | 181 nM | Cn1cc(C#Cc2cnc(Nc3ccnc(-c4cnn(S(=O)(=O)C5CC5)c4)n3)cc2NC2CCCC(F)C2)cn1 (stereo not shown) [Example 74, N^2-(2-(1-(Cyclopropylsulfonyl)-1H-pyrazol-4-yl)pyrimidin-4-yl)-N^4-(3-fluorocyclohexyl)-5-((1-methyl-1H-pyrazol-4-yl)ethynyl)pyridine-2,4-diamine] |
| 2.6 nM | 5.7 nM | 3.8 nM | > 10000 nM | 45.6 nM | 1.6 nM | 1.8 nM | 1.8 nM | 0.8 nM | 104 nM | Cn1cc(C#Cc2cnc(Nc3ccnc(-c4cnn(S(=O)(=O)C5CC5)c4)n3)cc2N[C@H]2CCC[C@@H](O)C2)cn1 [Example 75, (1R,3S)-3-((2-((2-(1-(Cyclopropylsulfonyl)-1H-pyrazol-4-yl)pyrimidin-4-yl)amino)-5-((1-methyl-1H-pyrazol-4-yl)ethynyl)pyridin-4-yl)amino)cyclohexan-1-ol] |

Source: patent publication US11981658B2, “Substituted aminopyridine compounds as EGFR inhibitors” (YUHAN CORPORATION, priority 2021, dated 2024)
